According to patent publication US5610174A, “Use of α1A -selective adrenoceptor agonists for the treatment of urinary incontinence” (priority 1995, dated 1997):
Like-named read-outs stand apart in the source and are kept apart here.

What was measured:
[1] = biological target: T1, dog BN, male (α1-adrenoceptor) (Canis lupus, UniProt A0A8I3NK63); assay: Contractile study in isolated male dog bladder neck; details: versus phenylephrine-induced contraction
T1 sequence (A0A8I3NK63 1-466): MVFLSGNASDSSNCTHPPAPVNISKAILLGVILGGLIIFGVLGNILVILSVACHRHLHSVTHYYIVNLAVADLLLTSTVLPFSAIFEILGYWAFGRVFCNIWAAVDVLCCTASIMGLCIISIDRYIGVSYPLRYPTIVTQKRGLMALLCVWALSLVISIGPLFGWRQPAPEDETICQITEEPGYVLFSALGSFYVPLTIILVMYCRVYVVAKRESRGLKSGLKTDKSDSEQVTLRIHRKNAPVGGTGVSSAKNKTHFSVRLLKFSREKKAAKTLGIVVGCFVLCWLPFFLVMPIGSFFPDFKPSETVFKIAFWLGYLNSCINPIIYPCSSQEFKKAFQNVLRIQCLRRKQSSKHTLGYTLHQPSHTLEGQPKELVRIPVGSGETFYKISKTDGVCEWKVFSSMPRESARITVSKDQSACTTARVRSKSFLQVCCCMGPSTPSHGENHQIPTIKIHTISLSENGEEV
From the text: (§1) In addition, similar studies were done using bladder neck tissue from female dogs. In order to identify the specific receptor subtype in each tissue, the pharmacological profile was compared to the profiles for these same drugs at the cloned human α1A, α1B, or α1C subtypes.
(§2) Tissue samples from the proximal urethra of male humans and male and female rabbits, as well as tissue samples from both the proximal urethra and bladder neck of male and female dogs were cut into transverse strips (3×10 mm) and suspended under 0.5 g tension in Krebs' physiological buffer at 37° C. To determine agonist potency (pEC50 )and antagonist affinity constants (pKB), concentration-effect curves to the non-selective agonist phenylepherine were constructed in the absence and in the presence of increasing concentrations of the antagonist. Up to four sequential curves were constructed in each tissue. Antagonists were allowed to equilibrate for 1h before each concentration-effect curve, and the drugs were completely washed out in between successive curves. In each experiment, one tissue served as a "time control", in which no antagonist was added so that changes in tissue sensitivity could be assessed as a function of time. […] In instances in which a single concentration of antagonist was used, pKB values were determined by the equation: […], where CR is defined as the ratio of the agonist EC50 in the presence of the antagonist to that in the absence of the antagonist.

human α1B adrenoceptor = biological target: T2, human α1B adrenoceptor (Homo sapiens, UniProt P35368); assay: Radioligand binding ([3H]prazosin) at cloned human α1B
T2 construct: The entire coding region of the α1B receptor (1563 bp); expressed in transfected cells
T2 sequence (P35368 1-520): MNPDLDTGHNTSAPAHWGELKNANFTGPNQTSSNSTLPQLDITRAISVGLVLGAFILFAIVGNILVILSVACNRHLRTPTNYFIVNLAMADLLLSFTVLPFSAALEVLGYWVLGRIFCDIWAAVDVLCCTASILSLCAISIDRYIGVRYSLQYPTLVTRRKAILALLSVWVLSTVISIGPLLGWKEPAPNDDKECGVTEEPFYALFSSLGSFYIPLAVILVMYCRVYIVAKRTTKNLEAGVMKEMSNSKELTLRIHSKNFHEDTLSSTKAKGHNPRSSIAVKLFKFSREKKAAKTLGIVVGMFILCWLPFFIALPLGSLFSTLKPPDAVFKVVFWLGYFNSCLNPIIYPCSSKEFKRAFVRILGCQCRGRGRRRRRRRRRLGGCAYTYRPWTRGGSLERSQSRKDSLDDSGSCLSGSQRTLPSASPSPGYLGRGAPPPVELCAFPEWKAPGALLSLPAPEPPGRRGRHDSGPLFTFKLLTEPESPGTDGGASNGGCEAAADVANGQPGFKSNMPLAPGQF
Procedure: (§3) These cell lines were prepared by transfecting the cloned cDNA or cloned genomic DNA or constructs containing both genomic DNA and cDNA encoding the human α-adrenoceptors as follows:
The construct involved ligating the full-length containing EcoRI brainstem cDNA fragment from λ ZapII into the expression vector. Stable cell lines were obtained as described above.
(§4) Transfected cells from culture flasks were scraped into 5 ml of 5 mM Tris-HCl, 5 mM EDTA, pH 7.5, and lysed by sonication. The cell lysates were centrifuged at 1000 rpm. for 5 min at 4° C., and the supernatant was centrifuged at 30,000 ×g for 20 min at 4° C. The pellet was suspended in 50 mM Tris-HCl , 1 mM MgCl2, and 0.1% ascorbic acid at pH 7.5. […] The reaction was stopped by filtration through GF/B filters using a cell harvester.

human α1A adrenoceptor = biological target: T3, human α1A adrenoceptor (Homo sapiens, UniProt P25100); assay: biochemical; assay type: binding
T3 sequence (P25100 1-572): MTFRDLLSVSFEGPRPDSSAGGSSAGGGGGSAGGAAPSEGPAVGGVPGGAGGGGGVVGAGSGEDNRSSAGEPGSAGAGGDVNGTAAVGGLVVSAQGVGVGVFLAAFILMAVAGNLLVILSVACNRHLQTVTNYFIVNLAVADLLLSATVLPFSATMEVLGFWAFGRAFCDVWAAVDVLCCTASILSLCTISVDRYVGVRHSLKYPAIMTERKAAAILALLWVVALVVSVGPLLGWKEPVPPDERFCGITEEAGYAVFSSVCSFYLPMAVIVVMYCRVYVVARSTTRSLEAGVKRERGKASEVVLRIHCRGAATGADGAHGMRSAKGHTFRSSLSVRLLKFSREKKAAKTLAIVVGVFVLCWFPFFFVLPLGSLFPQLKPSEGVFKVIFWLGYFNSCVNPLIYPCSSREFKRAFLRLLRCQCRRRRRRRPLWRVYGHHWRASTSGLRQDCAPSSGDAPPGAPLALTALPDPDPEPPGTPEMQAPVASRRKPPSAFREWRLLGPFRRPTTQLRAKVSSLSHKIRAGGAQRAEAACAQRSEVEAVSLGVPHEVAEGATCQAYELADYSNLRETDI
Procedure: as §3
The cells were grown, in a controlled environment (37° C., 5% CO2), as monolayers in Dulbecco's modified Eagle's Medium (GIBCO, Grand Island, N.Y.) containing 25 mM glucose and supplemented with 10% bovine calf serum, 100 units/ml penicillin g, and 100 μg/ml streptomycin sulfate.
as §4

human α1C adrenoceptor = biological target: T4, human α1C adrenoceptor (Homo sapiens, UniProt P35348); assay: biochemical; assay type: binding
T4 sequence (P35348 1-466): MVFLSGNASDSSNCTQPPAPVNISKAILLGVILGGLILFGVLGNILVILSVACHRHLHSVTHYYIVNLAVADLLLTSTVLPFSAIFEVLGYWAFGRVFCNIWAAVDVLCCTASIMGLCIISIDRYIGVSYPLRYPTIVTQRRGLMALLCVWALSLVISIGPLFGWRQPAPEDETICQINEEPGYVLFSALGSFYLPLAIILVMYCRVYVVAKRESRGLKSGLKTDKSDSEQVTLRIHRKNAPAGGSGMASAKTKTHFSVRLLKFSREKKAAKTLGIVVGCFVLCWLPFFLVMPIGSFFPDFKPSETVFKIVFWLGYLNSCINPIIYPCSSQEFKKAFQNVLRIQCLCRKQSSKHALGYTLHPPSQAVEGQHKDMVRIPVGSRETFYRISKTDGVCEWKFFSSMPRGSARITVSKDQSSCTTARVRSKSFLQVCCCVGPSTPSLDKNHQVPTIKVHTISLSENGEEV
Procedure: as §3
The construct involved ligating three partial overlapping fragments: a 5' 0.6 kb HincII genomic clone, a central 1.8 EcoRI hippocampal cDNA clone, and a 3' 0.6 Kb PstI genomic clone. The hippocampal cDNA fragment overlaps with the 5' and 3' genomic clones so that the HincII and PstI sites at the 5' and 3' ends of the cDNA clone, respectively, were utilized for ligation. This full-length clone was cloned into the KpnI site of the expression vector, using the 5' and 3' KpnI sites of the fragment, derived from vector (i.e., pBluescript) and 3'-untranslated sequences, respectively. Stable cell lines were obtained as described above.
as §4

[2] = biological target: T5, human urethra (α1-adrenoceptor) (Homo sapiens, UniProt P35348); assay: Contractile study in isolated human male urethra
T5 construct: Tissue samples from the proximal urethra of male humans; from tissue; host or cells: human male proximal urethra strips
T5 sequence (P35348 1-466): T4 sequence (P35348 1-466)
From the text: as §1, §2

[3] = biological target: T6, dog BN, female (α1-adrenoceptor) (Canis lupus, UniProt A0A8I3NK63); assay: Contractile study in isolated female dog bladder neck; details: versus phenylephrine-induced contraction
T6 sequence (A0A8I3NK63 1-466): T1 sequence (A0A8I3NK63 1-466)
From the text: as §1, §2

[4] = biological target: T7, rabbit urethra, male (α1-adrenoceptor) (Oryctolagus cuniculus, UniProt O02824); assay: Contractile study in isolated male rabbit urethra; details: versus phenylephrine-induced contraction
T7 sequence (O02824 1-466): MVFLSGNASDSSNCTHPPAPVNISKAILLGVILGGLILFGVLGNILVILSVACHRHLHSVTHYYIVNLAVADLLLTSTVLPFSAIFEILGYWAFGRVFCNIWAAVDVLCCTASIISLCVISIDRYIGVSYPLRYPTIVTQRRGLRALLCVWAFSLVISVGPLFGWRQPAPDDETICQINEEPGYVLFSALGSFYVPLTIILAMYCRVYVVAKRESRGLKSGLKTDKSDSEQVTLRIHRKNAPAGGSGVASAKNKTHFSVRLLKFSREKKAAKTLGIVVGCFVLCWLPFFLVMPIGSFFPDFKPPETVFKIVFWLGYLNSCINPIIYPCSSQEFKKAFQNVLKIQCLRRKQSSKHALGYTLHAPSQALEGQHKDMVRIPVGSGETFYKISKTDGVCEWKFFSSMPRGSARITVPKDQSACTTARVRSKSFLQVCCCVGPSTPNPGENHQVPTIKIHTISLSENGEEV
From the text: as §1, §2

[5] = biological target: T8, rabbit urethra, female (α1-adrenoceptor) (Oryctolagus cuniculus, UniProt O02824); assay: Contractile study in isolated female rabbit urethra; details: versus phenylephrine-induced contraction; read-out: pKB Rabbit Urethra Female (converted)
T8 construct: proximal urethra of male humans and male and female rabbits; from tissue; host or cells: rabbit proximal urethra strips, male or female
T8 sequence (O02824 1-466): T7 sequence (O02824 1-466)
From the text: as §1, §2

[6] = cited from earlier work; for major side effect of use in incontinence (blood pressure): dose-dependent; for major side effect of use in incontinence (blood pressure) / CNS side effects in some patients: Andersson and Sjogren, 1982; for CNS side effects in some patients: stimulant actions in the CNS, Wein, 1987
[7] = prodrug; cited from earlier work
[8] = Andersson and Sjogren, 1982; cited from earlier work

SMILES: COC(=O)C1=C(C)NC(C)=C(C(=O)OCCCN2CCC(c3ccccc3)(c3ccccc3)CC2)C1c1ccc([N+](=O)[O-])cc1.Cl (racemic) [Compound 1, (±)-2,6-Dimethyl-4-(4-nitrophenyl)-1,4-dihydro-pyridine-3,5-dicarboxylicacid [3-(4,4-diphenylpiperidin-1-yl)propyl]ester methyl ester hydrochloride]
- pKB Dog BN Male [1]: 6.2
- Ki (human α1B adrenoceptor): 79.4 nM
- Ki (human α1A adrenoceptor): 316 nM
- Ki (human α1C adrenoceptor): 3.16 nM
- Kb [2]: 7.94 nM

SMILES: COc1ccccc1N1CCN(CCN2C(=O)CC3(CCCC3)CC2=O)CC1 [BMY 7378]
- pKB Dog BN Male [1]: 7.1
- Ki (human α1B adrenoceptor; Table 2, antagonists, versus 3H-prazosin, read-out: pKI (antagonist affinity, 3H-prazosin binding) hα1B (converted)): 100 nM
- pKB Dog BN Female [3]: 6.8
- pKB Rabbit Urethra Male [4]: 6.5
- Kb [5]: 794 nM

SMILES: Clc1cccc(Cl)c1N=C1NCCN1 [clonidine]
- undesirable side effects at therapeutic doses ([6]; in addition to antihypertensive effect): dry mouth, sedation and orthostatic hypotension

SMILES: CN[C@@H](C)[C@H](O)c1ccccc1 [ephedrine]
- major side effect of use in incontinence (blood pressure) [6]: increase in blood pressure
- CNS side effects in some patients [6]: insomnia, anxiety and dizziness

SMILES: COc1ccc(OC)c(C(O)CNC(=O)CN)c1 (stereo not drawn) [midodrine]
- in vivo conversion to active phenylethylamine [7]: converted in vivo to the active phenylethylamine ST-1059
- clinical efficacy in urinary incontinence [8]: has not been demonstrated conclusively

SMILES: CNC[C@H](O)c1cccc(O)c1 [phenylephrine]
- major side effect of use in incontinence (blood pressure) [6]: increase in blood pressure

SMILES: CC(N)C(O)c1ccccc1 (stereo not drawn) [phenylpropanolamine]
- major side effect of use in incontinence (blood pressure) [6]: increase in blood pressure
- CNS side effects in some patients [6]: insomnia, anxiety and dizziness
